From patent US4698332A, “Expectorant” (Mect Corporation, priority 1984, dated 1987)
Structures can show the parent of a compound that is named as a salt. Where two headings read alike, the source gives them in different places.

Tests used:
[1] = Rheological properties and pH of purulent sputum after sodium salt treatment (Example 10); design: species or system human; conditions: 1 mg/ml sputum
Experimental: (§1) The sputum used as the specimens was collected from 12 samples of patients suffering from chronic obstructive lung disease. N-acetylneuraminic acid was added to the specimen sputum in the ratios of 5 mg/ml sputum and 1 mg/ml sputum, and the specimen was left for 1 hour at 4° C. before measurement. Sputum which has not been treated by N-acetylneuraminic acid was used as a comparison example. A palatine mucosa obtained from a decapitated frog head was kept at constant temperature and humidity until the mucus liquid of the frog itself depleted. The specimen sputum was placed on the dried palatine mucosa, and the speed of movement of the sputum was observed through a noumenal microscope, thus measuring the MTR. The pH value of the sputum was measured by means of an electronic model HM-SAp pH meter, while the spinnability was measured by a device developed by Nagaoka and Yamanaka (disclosed in Transactions of 2nd Symposium of Cough and sputum, published July 20, 1979). The yield value was measured by Dulfano's double-tube method which is shown in the American Review of Respiratory Diseases, Vol. 104, p88, 1971.
(§2) Effect of sodium salt of N-acetylneuraminic acid on sputum was examined in accordance with the testing method explained in connection with Example 5.

[2] = system: ciliated cell; experiment: Rotating ciliated explant (Example 9, Table 7); type: cell-based; conditions: for activation at 100 µg/mL: 10^-1 mg/ml; for activation at 100 µg/mL / activation at 10 µg/mL / activation at 1 µg/mL / activation at 0.1 µg/mL: mean ± SD, > 20.0 significant, read-out: Acceleration (rotating ciliated explant); for activation at 10 µg/mL: 10^-2 mg/ml (terbutaline 1-^-2 [sic]); for activation at 0.1 µg/mL: 10^-4 mg/ml
Experimental: Human ciliated cells were collected from a normal trachea by means of a branchoscope, the ciliated cells being separated by rubbing the bronchus while observing through the branchoscope, while the collection of frog cilitated cells was conducted by rubbing the palatine mucosta, without being specially careful. […] The groups of cells were transferred to a cover slip and one drop of chicken plasma (prepared by Difco Company) and one drop of 50% chicken embryo extract were added to the cells, thus forming clots. The rotary motion in the clots was recorded by means of a video recorder and the number of rotations per minute was measured. The agents were dissolved in the Medium 199 and were injected through a tube attached to a rose chamber. The state of rotary motion 5 minutes, 10 minutes and 15 minutes after the injection were recorded by means of a video recorder, and the number of revolutions was measured.
A test was conducted to examine the above-mentioned effect by using sodium salt of N-Acetylneuraminic Acid, in accordance with the same testing method as that of Example 2.

[3] = Acute toxicity test of sodium salt of N-acetylneuraminic acid, guinea pig (Example 11); design: species or system Hartley guinea pig; conditions: in vivo, intravenous injection, 95% 2,355-4,087
Experimental: (§3) A test was conducted to examine the acute toxicity of sodium salt of N-acetylneuraminic acid, using mice, rats, and guinea pig by means of per as, subcutaneous injection, intravenous injection, intraperitoneal injection, and inhalation.
Hartley guinea pig: 6 weeks old
(§4) 20% (W/V) dissolved in distilled water

[4] = system: palatine mucosa of frog; experiment: Mucociliary transport of frog palatine mucosa (Example 8, Table 6); type: cell-based; conditions: for activation at 100 µg/mL: 10^-1 mg/ml; for activation at 100 µg/mL / activation at 10 µg/mL / activation at 1 µg/mL / activation at 0.1 µg/mL: mean ± SD, over 20.0% significant, read-out: Acceleration (mucociliary transport); for activation at 10 µg/mL: 10^-2 mg/ml; for activation at 1 µg/mL: 10^-3 mg/ml; for activation at 0.1 µg/mL: 10^-4 mg/ml
Experimental: Mucociliary transport was measured by the particle transport method. After decapitation of a frog, the surface of the palatine mucosa was separated with minimized damage and of fixed to a cork plate in a Petri dish which was then filled with 20 ml of Ringer's solution (trishydrochloric acid). The palatine mucosa was left in this state for 30 minutes before the commencement of measurement. For measurement, the Ringer's solution was removed and fine pieces of cork (capable of passing pharmaceutical sieve No. 5 but not capable of passing No. 6) were placed on the surface of the palatine mucosa, and the time (in seconds) required for the cork piece to move 1 cm was measured. The duration of movement, i.e., moving speed, was measured also in the state immediately after the removal of the Ringer's solution or pharmaceutical solution.

[5] = system: purulent sputum from patients with diffuse panbronchiolitis; experiment: MTR of purulent sputum after sodium salt treatment (Example 10); design: species or system human sputum; frog palatine mucosa; conditions: 1 mg/ml sputum
Experimental: as §1, §2

[6] = system: rat; experiment: Acute toxicity test of sodium salt of N-acetylneuraminic acid, rat (Example 11); type: in vivo, SD rats; conditions: inhalation, 1hr exposure to mist
Experimental: as §3, §4
(§5) Inhalation was conducted by 1hr exposure to mist.

[7] = as above; type: in vivo, SD rats; conditions: in vivo
Experimental: as §3, §4, §5

[8] = Acute toxicity test of sodium salt of N-acetylneuraminic acid, mouse (Example 11); design: species or system ICR mice; conditions: in vivo
Experimental: as §3, §4

[9] = ip, intraperitoneal injection, first line (sex not given)
[10] = ip, intraperitoneal injection, second line (sex not given)
[11] = po, per os, first line (sex not given)
[12] = po, per os, second line (sex not given)
[13] = sc, subcutaneous injection, first line (sex not given)
[14] = sc, subcutaneous injection, second line (sex not given)

With `CC(=O)N[C@H]1[C@H]([C@H](O)[C@H](O)CO)OC(O)(C(=O)O)C[C@@H]1O` (stereo partly drawn) [sodium salt of N-acetylneuraminic acid] the Change of spinnability [1] was “generally increased”, the “Change of sputum pH” value [1] was “significant increase in pH value” and the “Change of yield value” [1] was “a reduction was observed with regard to the yield value”. For the same molecule, the “Yield value after treatment” value ([1]; 15 specimens, mean ± S.D., before 0.8 ± 1.5) was 0.3 ± 0.6 mmH2 O, the pH after treatment ([1]; 15 specimens, mean ± S.D., before 7.48 ± 0.41, P < 0.001) was 7.91 ± 0.43 and the Spinnability after treatment ([1]; 15 specimens, mean ± S.D., before 13 ± 14) was 21 ± 28 mm. For the same molecule, the “Effect on number of rotations” value ([2]; 10^-3 mg/ml) was “A significant number of rotations was observed”, the activation at 100 µg/mL ([2]; 5 min, 5 min after perfusion) was 0% and the activation at 10 µg/mL ([2]; 5 min, 5 min after perfusion) was 1.5 ± 11.6%. It also gave an activation at 1 µg/mL ([2]; 5 min, 10^-3 mg/ml, 5 min after perfusion) of 11.6 ± 29.8%, an activation at 0.1 µg/mL ([2]; 5 min, 5 min after perfusion) of -3.4 ± 9.7% and an activation at 100 µg/mL ([2]; 10 min, 10 min after perfusion) of 4.7 ± 6.6%. The activation at 10 µg/mL ([2]; 10 min, 10 min after perfusion) was 2.1 ± 18.2%, the activation at 1 µg/mL ([2]; 10 min, 10^-3 mg/ml, 10 min after perfusion) was 20.7 ± 27.5% and the activation at 0.1 µg/mL ([2]; 10 min, 10 min after perfusion) was 0.6 ± 10.6%. It also gave an activation at 100 µg/mL ([2]; 0.25 h, 15 min after perfusion) of 15.4 ± 9.3%, an activation at 10 µg/mL ([2]; 0.25 h, 15 min after perfusion) of 3.7 ± 29.3% and an activation at 1 µg/mL ([2]; 0.25 h, 10^-3 mg/ml, 15 min after perfusion) of 16.2 ± 32.3%. The activation at 0.1 µg/mL ([2]; 0.25 h, 15 min after perfusion) was -5 ± 8.2%, the LD50 at 336 h [3] was 2860 mg/kg and the activation at 100 µg/mL ([4]; 5 min, 5 min after applied) was 10.7 ± 19.2%. The activation at 10 µg/mL ([4]; 5 min, 5 min after applied) was 20.8 ± 25.5%, the activation at 1 µg/mL ([4]; 5 min, 5 min after applied) was 16.2 ± 19.5% and the activation at 0.1 µg/mL ([4]; 5 min, 5 min after applied) was 2.6 ± 22.2%. It also gave an activation at 100 µg/mL ([4]; 10 min, 10 min after applied) of 8.5 ± 23.4%, an activation at 10 µg/mL ([4]; 10 min, 10 min after applied) of 18 ± 29.7% and an activation at 1 µg/mL ([4]; 10 min, 10 min after applied) of 18.9 ± 22.1%. For the same molecule, the activation at 0.1 µg/mL ([4]; 10 min, 10 min after applied) was 8.5 ± 21.9%, the activation at 100 µg/mL ([4]; 0.25 h, 15 min after applied) was 7.4 ± 24.7% and the activation at 10 µg/mL ([4]; 0.25 h, 15 min after applied) was 5.7 ± 24.9%. For the same molecule, the activation at 1 µg/mL ([4]; 0.25 h, 15 min after applied) was 17.7 ± 34%, the activation at 0.1 µg/mL ([4]; 0.25 h, 15 min after applied) was 7.1 ± 27.2% and the “Effect on MTR of frog palatine mucosa” value ([4]; Table 6) was “acceleration of the MTR of the frog palatine mucosa in a certain dependency on the dose”. The “Effect compared with acetylcholine” value ([4]; acetylcholine at 10^-4 mg/ml) was “subtantially equivalent to that of the acetylcholine”, the “Change of sputum MTR” value [5] was “significant increase in pH value and MTR” and the MTR after treatment ([5]; 15 specimens, mean ± S.D., before 9 ± 5, P < 0.01) was 12 ± 5 mm/min. For the same molecule, the LD50 ([6]; first line (sex not given)) was > 4,000 mg/m^3, the LD50 ([6]; second line (sex not given)) was > 4,000 mg/m^3 and the LD50 at 336 h [7, 9] was greater than 5000 mg/kg. The LD50 at 336 h [7, 10] was greater than 5000 mg/kg, the LD50 at 336 h ([7]; iv, intravenous injection, first line (sex not given), 95% 2,638-3,342) was 2970 mg/kg and the LD50 at 336 h ([7]; iv, intravenous injection, second line (sex not given)) was greater than 5000 mg/kg. The LD50 at 336 h [7, 11] was greater than 5000 mg/kg, the LD50 at 336 h [7, 12] was greater than 5000 mg/kg and the LD50 at 336 h [7, 13] was greater than 5000 mg/kg. The LD50 at 336 h [7, 14] was greater than 5000 mg/kg, the LD50 at 336 h [8, 9] was greater than 5000 mg/kg and the LD50 at 336 h [8, 10] was greater than 5000 mg/kg. It also gave an LD50 at 336 h ([8]; iv, intravenous injection, first line (sex not given), 95% 5,679-7,084) of 6290 mg/kg, an LD50 at 336 h ([8]; iv, intravenous injection, second line (sex not given), 95% 7,214-9,073) of 7950 mg/kg and an LD50 at 336 h [8, 11] greater than 5000 mg/kg. It also gave an LD50 at 336 h [8, 12] greater than 5000 mg/kg, an LD50 at 336 h [8, 13] greater than 5000 mg/kg and an LD50 at 336 h [8, 14] greater than 5000 mg/kg.
